Results taken from US20030207830A1, “Mutant NDP kinases for antiviral nucleotide analog activation and therapeutic uses thereof” (priority 2002, published 2003).

Columns and labels:
Assay type in all cases: biochemical
[1] = biological target: T1, human NDP kinase A (NDPK-A) variant L55H (Homo sapiens, UniProt P15531, L55H); assay: Pre-steady-state phosphotransfer, fluorescence stopped-flow
T1 construct: made in house; host or cells: E. coli

[2] = biological target: T2, Dictyostelium discoideum NDP kinase (Dd-NDPK) variant N119S, SEQ ID NO: 1 (Dictyostelium discoideum, UniProt P22887, N119S); assay: as above; settings: for k2/Ks: catalytic efficiency of phosphotransfer, N119S, pre-steady state; for reaction with N119S relative to wild type (times faster): from k2/Ks of Table I
T2 construct: made in house

[3] = biological target: T3, Dictyostelium discoideum NDP kinase (Dd-NDPK), wild type (Dictyostelium discoideum, UniProt P22887); assay: as above; settings: catalytic efficiency of phosphotransfer, wt
T3 construct: made in house

[4] = biological target: T4, human NDP kinase A (NDPK-A, nm23-H1), wild type (Homo sapiens, UniProt P15531); assay: as above; settings: catalytic efficiency of phosphotransfer, NDPK-A, pre-steady state
T4 construct: made in house
Experimental: FIG. 3 depicts the catalytic efficiency of NDPK-A and mutants for nucleoside analogs. The rates of phosphorylation of pure recombinant NDP kinases (1 μM) were measured at the pre-steady state in a fluorescence stopped-flow with d4T-TP (10 to 80 μM). The catalytic efficiency (expressed in M^−1s^−1) was determined from the variation of the rate as a function of analog as shown in FIG. 2 (▾, NDPK-A, ♦ L55H, ● N115S, ▪ L55H-N115S).
The activity assays were performed at the pre-steady state level.
Wild type human NDPK-A and the mutants were expressed and purified according to Schneider et al., 2000, Mol Pharm. Recombinant wild type and mutant Dd-NDPK were obtained as described (Schneid, 1998a), except for N119Y NDP kinase which was partially purified by Q sepharose FF chromatography. Each protein was characterized by […] electrophoresis. The concentration of 17 kDa subunits of the enzyme was either determined by Bradford assay ([…]) or using an absorbance coefficient of ΔA^280=1.249 for a 1 mg/mL solution of human wild type and N115S NDPK-A, and =0.55 for wild type and mutant N119S, N119T Dd-NDP kinases, respectively.
As the diphosphate form of analogs were not always available, the triphosphate analogs were used to study phosphate transfer in reaction as in Scheme I. Experiments were performed with an Hi-Tech DX2 microvolume stopped-flow reaction (Schneider, 1998) at Aexc=296 nm (for Ado derivatives) or […] (for other nucleotides), 2 mm excitation slit and a 320 nm cutoff filter at the emission. After mixing NDPK (1 μM) and NTP or an analogTP (10-500 μM), the intrinsic protein fluorescence was recorded for 10-200 sec. In each experiment, 400 pairs of data were recorded, and the data from 3-4 identical experiments were averaged and fitted to a number of non-linear analytical equations using the software provided by Hi-Tech.
(§1) The data were analyzed using the reaction scheme: [drawing 1]
In both the forward and the reverse reactions, the product concentration remains very low, thus the product binding can be neglected, and the observed single step could be attributed to the phosphotransfer (Schneider, 1998). The rate of this observed single step is: [formula]
(§2) and reaches a limiting value (k+2) at NTP saturation. […] Therefore, catalytic efficiencies of phosphorylation (CEphos=k+2/(k−1/k+1)=k+2/KS) were measured, which are equivalent to second order constants and allow a reliable comparison of a variety of NDP kinase substrates.

[5] = biological target: T5, Dictyostelium NDP Kinase wt (Dictyostelium discoideum, UniProt P22887); assay: Pre-steady-state fluorescence stopped-flow phosphotransfer from nucleoside triphosphates, wild type Dd-NDPK; settings: average of three determinations
T5 construct: made in house
Experimental: The binding constants were determined at equilibrium by recording the increase in fluorescence (Schneider, 2000).
After mixing NDPK (1 μM) and NTP or an analogTP (10-500 μM), the intrinsic protein fluorescence was recorded for 10-200 sec. In each experiment, 400 pairs of data were recorded, and the data from 3-4 identical experiments were averaged and fitted to a number of non-linear analytical equations using the software provided by Hi-Tech.
as §1
The rate of this observed single step is: [formula]
as §2

T2 sequence (P22887 whole entry N119S): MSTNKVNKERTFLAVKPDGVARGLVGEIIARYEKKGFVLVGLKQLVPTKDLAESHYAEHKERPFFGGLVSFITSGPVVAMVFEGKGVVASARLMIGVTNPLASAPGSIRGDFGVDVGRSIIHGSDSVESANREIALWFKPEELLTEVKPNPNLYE
T1 sequence (P15531 whole entry L55H): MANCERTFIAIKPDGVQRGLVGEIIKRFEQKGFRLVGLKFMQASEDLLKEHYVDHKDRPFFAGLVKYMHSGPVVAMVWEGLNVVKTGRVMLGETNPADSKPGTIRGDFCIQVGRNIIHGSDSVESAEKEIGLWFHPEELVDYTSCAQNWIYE
T4 sequence (P15531 whole entry): as the sequence (P15531 whole entry L55H) above, with H55L counted along it
T3 sequence (P22887 whole entry): as the sequence (P22887 whole entry N119S) above, with S119N counted along it
T5 sequence (P22887 whole entry): as the sequence (P22887 whole entry N119S) above, with S119N counted along it

## Cc1cn([C@H]2C[C@H](N=[N+]=[N-])[C@@H](COP(=O)(O)OP(=O)(O)OP(=O)(O)O)O2)c(=O)[nH]c1=O [AZT-TP]
[1]; catalytic efficiency of phosphotransfer, L55H, pre-steady state
  k2/Ks: 930 M⁻¹ s⁻¹
[1]; ratio of catalytic efficiencies analog vs natural nucleotide, mutant vs wild type
  Specificity change (R): (8)
[2]
  k2/Ks: 1100 M⁻¹ s⁻¹
  reaction with N119S relative to wild type (times faster): 4 times
[3]
  k2/Ks: 270 M⁻¹ s⁻¹
[4]
  k2/Ks: 75 M⁻¹ s⁻¹

## Nc1nc2c(ncn2[C@H]2CC[C@@H](COP(=O)(O)OP(=O)(O)OP(=O)(O)O)O2)c(=O)[nH]1 [ddGTP, dideoxy-GTP]
[5]
  k2/Ks wt (catalytic efficiency of phosphotransfer): 2300 M⁻¹ s⁻¹
[2]
  k2/Ks: 3500 M⁻¹ s⁻¹
  reaction with N119S relative to wild type (times faster): 1.5 times
[3]
  k2/Ks: 2300 M⁻¹ s⁻¹
[4]
  k2/Ks: 190 M⁻¹ s⁻¹
